One series deals with advanced solid tumors. The settings on record: patients with advanced solid tumors, intravenous once a week; cited from earlier work.
In series [1] the test system is Panc 02 pancreatic cancer model. Nature of the series: In vivo antitumor effect, Panc 02 pancreatic cancer model (Example 55). More on the design: species or system mouse. The settings on record: ICR mice, 4 doses. How it is done:
Panc 02 pancreatic cancer cells were cultured in DMEM medium at 37° C. with 5% CO2. Cells were passaged every two days during logarithmic growth phase until reaching a concentration of 1×10^7 cells/mL. Under sterile conditions, Panc 02 cells were subcutaneously implanted into the right axilla of ICR mice to establish the pancreatic cancer model. Once the tumor volume grew to 100-300 mm^3, mice were randomly divided into 6 groups of 6 animals each. Groups included blank control group, TP (DMSO) solution group, Minnelide solution group, and TP-LA liposome dose groups. Drugs were administered via tail vein injection at a dose of 0.6 mg/kg (based on TP) every other day for a total of 4 doses. On the third day after the last administration, mice were euthanized. Body weights were recorded, tumors were excised and weighed, and tumor inhibition rates were calculated.
[formula] 3. Antitumor Effects

In the next series the test system is tumor. The settings on record: Huang 2020; cited from earlier work.
The test system of series [2] is Panc 02 pancreatic cancer model. Put plainly: In vivo antitumor effect, Panc 02 pancreatic cancer model (Example 5). More on the design: species or system mouse. To be noted: ICR mice, tail vein 0.6 mg/kg (per TP) every two days, 4 doses. The protocol: Mouse pancreatic cancer Panc02 cells were cultured in DMEM medium at 37° C., 5% CO2 and passaged on average every two days. During the log growth phase, the cell concentration was adjusted to 1×10^7/mL, and Panc 02 cells were subcutaneously seeded in the right axilla of ICR mice under sterile conditions to establish a mouse pancreatic cancer model. When the mouse tumor volume was grown to 100-300 mm^3, the mice were randomly divided into 6 groups according to the tumor volume, with 6 mice in each group. The blank, TP (DMSO), TP-SA, TP-EA, TP-BA, and TP-LA were set. The mouse tail vein injection was 0.6 mg/kg (per TP), and the blank group was given 0.2 mL saline every two days for a total of 4 doses. The mice were killed on the third day of drug withdrawal, the mice were weighed, the tumor body was dissected and weighed, and the tumor suppression rate was calculated.
[formula] 3. Anti-Tumor Effect

For series [3] the following is noted: CN106946975A; cited from earlier work.
Series [4] is described as follows: Log P determination by shake-flask. The class given is physicochemical. How it is done:
The log P was determined by shake-flask. First, a certain amount of water and n-octanol are added into the funnel, shaken and separated to obtain water-saturated n-octanol solution and n-octanol saturated aqueous solution; quantify and accurately weigh triptolide and its derivatives in a volumetric bottle containing water-saturated n-octanol solution, and dissolve by ultrasound, drop water-saturated n-octanol solution, dilute and volume. Take 0.5 mL of this solution in a 5 mL volumetric flask, dilute with MeOH and volume. The concentration of triptolide and its derivatives was determined by the assay method; take the above solution to the Xilin bottle, add 10 times the amount of n-octanol saturated aqueous solution, and shake in a bath of 37° C. and 75 rpm for one day, so that triptolide and its derivatives reach equilibrium state in aqueous and organic phase. The n-octanol phase was transferred into a centrifuge tube, centrifuged at 3000 rpm for 10 min, precision measuring n-octanol phase in a volumetric flask, diluted 10 times with MeOH solution, and measured the content of triptolide and its derivatives in n-octanol phase. Drug concentration in the aqueous phase=total drug concentration-drug concentration in the n-octanol phase.
[formula] 3. The Content Determination Method of Triptolide and Its Derivatives in This Embodiment is Determined by High-Performance Liquid Chromatography (2020 Edition, Chinese Pharmacopoeia's Fourth Part Rule 0512), as Follows: • Chromatographic conditions: using chromatographic column: Agilent ZORBAX Eclipse Plus C18 column (4.6 mm×250 mm, 5 μm), mobile phase: 100% MeOH, column temperature: 30° C., flow rate: 1.0 mL/min, sample input: 20 μL, detection wavelength: 218 nm. • Preparation of control solution: accurately weighing triptolide and its derivatives 10 mg, placed in a 10 mL volumetric flask, dissolved with methanol and diluted to the scale line, shake well, as the control reserve solution. • Preparation of standard curve: Reserve solutions of different volumes of control were diluted to produce series solutions with mass concentrations of 5.00, 10.00, 25.00, 50.00, 100.00, 250.00, and 500.00 μg/mL, respectively. 20 μL of each sample was injected into the HPLC system and analyzed according to the “Chromatographic Conditions”. With the concentration C (μg/mL) as the abscissa and the peak area A as the ordinate, the linear regression is obtained. • Assay: accurately absorb 1 mL of each sample solution of triptolide and its derivatives to a 5 mL volumetric flask, dilute with methanol to the scale line, and vortex-mix evenly. 20 μL was injected into the HPLC chromatogram, recorded and calculated by the peak area according to the standard curve method. 4. Experimental Results

For series [5] the following is noted: in vivo; triptolide released via in vivo conversion of the liposomes, or triptolide itself; cited from earlier work.
A short description of series [6]: Pharmacokinetic study in rats. The settings on record: male, Sprague-Dawley (SD), rat, in vivo, iv, 0.6 mg/kg. The protocol:
Rat tail vein dose of equimolar TP 0.6 mg/kg, blood collection time point set at 6 min, 12 min, 18 min, 30 min, 48 min, 1 h, 1.5 h, 2 h, 2.5 h, 3 h, 5 h, 12 h, 24 h, 72 h, 5 SD rats from each group (♂).
Sample processing and analysis method: take plasma with 4 times the amount of methanol to precipitate protein, centrifugation at 12000 r/min for 10 min; remove the supernatant to remove methanol, extract the remaining residue with 400 μL methyl-t-butyl ether twice, centrifugation at 12000 r/min for 10 min. The organic extraction phase was collected, concentrated and dried, 100 μL of methanol was added for redissolution, and the supernatant was centrifuged into the LC-MS/MS system to calculate the plasma concentration by using DAS 2.0 software.

The subject of the next series is ear vein. Put plainly: Vascular irritation evaluation, rabbit ear vein. The class given is in vivo. The settings on record: rabbits, ear vein 0.22 mg/kg (based on TP), daily for three days, histology 48 hours after last administration. The protocol:
[…] (weighing 1.5-2.0 kg) were randomly divided into 6 groups. Each group received intravenous injection via the right ear vein of either saline solution, TP-LA liposomes prepared according to Examples 35, 42, and 53, TP (DMSO) solution, or Minnelide solution, at a dose of 0.22 mg/kg (calculated based on TP), administered at a rate of 1 mL/min. Simultaneously, saline of equal volume was administered via the left ear vein as a control. This procedure was repeated daily for three consecutive days.
During each day of administration, the animals' behavior and pathological changes at the injection site were observed macroscopically. Euthanasia was performed 48 hours after the last administration. Tissue samples were collected approximately 2.0 cm towards the central end from the injection site on the ear vein, fixed in 10% paraformaldehyd solution, dehydrated using an ethanol gradient, embedded in paraffin, and sectioned into slices stained with hematoxylin and […]. All samples were examined using a BX43-DP21 light microscope (Olympus Corporation, Japan), and pathological changes were assessed.

The mark [7] stands for this setting: tail vein 0.6 mg/kg (based on TP) every other day.
The mark [8] stands for this setting: shake-flask, n-octanol/water, 37° C., read-out: log P.

Where two headings read alike, the source gives them in different places.

As for `CC(C)[C@]12O[C@H]1[C@@H]1O[C@]13[C@]1(O[C@H]1C[C@H]1C4=C(CC[C@@]13C)C(=O)OC4)[C@@H]2OC(=O)CCC(=O)[O-].[Na+]` [PG490-88Na], in the series with advanced solid tumors, the “grade of most frequently reported adverse reactions (anemia, malaise, nausea, vomiting, diarrhea, constipation)” value was 1-2 and the “interindividual variability in pharmacokinetic properties” value is 2- to 3 fold.
The AUC(0-inf) is the area under the concentration-time curve extrapolated to infinity. In general, Cmax refers to the peak of the concentration-time curve. In general, MRT refers to the average time that molecules of a dose stay in the body. For the compound `CC(C)[C@]12O[C@H]1[C@@H]1O[C@]13[C@]1(O[C@H]1C[C@H]1C4=C(CC[C@@]13C)C(=O)OC4)[C@@H]2O` [Triptolide], in [1] (setting [7]), the Mean tumor weight is listed as 0.417 ± 0.097 g and the Tumor inhibition rate amounted to 40.26%. The Tumor inhibition rate in the series on tumor was 17.67%. Further, in [2], the Mean tumor weight worked out at 0.517 ± 0.097 g and the “Tumor Suppression rate” value stood at 41.12%. Further, the liposomal encapsulation rate entry in [3] was “less than 50%”. Further, the logP at 1 day in series [4] is 0.52 ± 0.01. Further, the “biological half-life of triptolide” value in series [5] was 15 min. In addition, in [6], the AUC(0-inf) was 0.337 ng·h/mL, the Cmax amounted to 0.698 ng/mL, the MRT turned out to be 32.8 min and the “[formula] (half-life)” value came to 13.2 ± 2.4 min.
Consider `CCCCCCCCCCCCCCCCCCCCCC(=O)O[C@@H]1[C@@]2(C(C)C)OC2[C@@H]2O[C@]23[C@]12O[C@H]2CC1C2=C(CC[C@@]13C)C(=O)OC2` (stereo partly shown) [Triptolide behenate, triptolide behenate], for which the logP at 1 day in series [4] (setting [8]) came out at 2.78 ± 0.04.
Same read-out and setting: for `CCCCCCCCCCCCCCCCCC(=O)O[C@@H]1[C@@]2(C(C)C)OC2[C@@H]2O[C@]23[C@]12O[C@H]2CC1C2=C(CC[C@@]13C)C(=O)OC2` (stereo partly shown) [Triptolide stearate, triptolide stearate] the value was 2.41 ± 0.04.
The same measure, in the same setting: for `CCCCCCCCCCCCCCCCCCCCCCCC(=O)O[C@@H]1[C@@]2(C(C)C)OC2[C@@H]2O[C@]23[C@]12O[C@H]2CC1C2=C(CC[C@@]13C)C(=O)OC2` (stereo partly shown) [Triptolide lignocerate, triptolide lignocerate] the value was 3.12 ± 0.03.
Consider `CC(C)[C@]12O[C@H]1[C@@H]1O[C@]13[C@]1(O[C@H]1C[C@H]1C4=C(CC[C@@]13C)C(=O)OC4)[C@@H]2OCOP(=O)(O)O` [Minnelide], for which, in series [1] (setting [7]), the Body weight change worked out at 1.09%, the Mean tumor weight stood at 0.222 ± 0.029 g and the Tumor inhibition rate came out at 68.19%. The “tail vein irritation after administration” value in series [1] (tail vein 0.6 mg/kg (based on TP)) is “varying degrees of tail swelling and ulceration”. Also, the “vascular irritation, pathological changes of ear vein” value in the series on ear vein is “congestion and some instances of bleeding”.
